inhibition, pharmacokinetic properties and IC50 data for eleven compounds are collected here from PMC11641184, “Coumarin Derivative Hybrids: Novel Dual Inhibitors Targeting Acetylcholinesterase and Monoamine Oxidases for Alzheimer’s Therapy” (International Journal of Molecular Sciences, 2024).

Each structure is given as a SMILES string.

One data set addresses T1, hMAO-B (Homo sapiens, UniProt P27338).
T1 construct: purchased Aldrich (Milan, Italy)
T1 sequence (P27338 1-520): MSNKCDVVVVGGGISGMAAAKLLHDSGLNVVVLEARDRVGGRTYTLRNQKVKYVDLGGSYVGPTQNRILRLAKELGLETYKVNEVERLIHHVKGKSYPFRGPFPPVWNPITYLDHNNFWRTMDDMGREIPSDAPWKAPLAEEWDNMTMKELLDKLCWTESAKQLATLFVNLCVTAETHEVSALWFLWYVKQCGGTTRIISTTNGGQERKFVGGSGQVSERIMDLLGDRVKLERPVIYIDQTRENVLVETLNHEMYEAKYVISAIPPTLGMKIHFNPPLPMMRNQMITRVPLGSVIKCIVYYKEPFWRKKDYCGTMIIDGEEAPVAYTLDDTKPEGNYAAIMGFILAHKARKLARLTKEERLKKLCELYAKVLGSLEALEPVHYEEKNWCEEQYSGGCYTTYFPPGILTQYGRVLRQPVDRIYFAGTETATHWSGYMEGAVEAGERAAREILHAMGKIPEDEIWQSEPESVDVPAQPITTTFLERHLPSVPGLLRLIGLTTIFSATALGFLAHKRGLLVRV
In words: biochemical. The settings on record: human recombinant MAO-B; for inhibition at 10 µM: read-out: hMAO-B % inhibition at 10 μM ± SD, 10 μM inhibitor, n = 3; for IC50: kynuramine, 37 °C, pH 7.4, n = 3, read-out: hMAO-B IC50 ± SEM. As for the experimental part: (§1) All enzymes and chemicals were purchased from Aldrich (Milan, Italy). Inhibition assays were performed in 96-well plates (Greiner Bio-One GmbH, Frickenhausen, Germany) using an Infinite M1000 plate reader (Tecan, Milan, Italy). Incubations were performed in triplicate, and final inhibition values were determined as mean ± SEM (n = 3).
(§2) Incubations were set at 37 °C in phosphate buffer with a pH of 7.4 for 20 min before the addition of enzyme, and the fluorescence was measured after additional incubation of 30 min.

The next data set deals with T2, hMAO-A (Homo sapiens, UniProt P21397).
T2 construct: purchased Aldrich (Milan, Italy)
T2 sequence (P21397 1-527): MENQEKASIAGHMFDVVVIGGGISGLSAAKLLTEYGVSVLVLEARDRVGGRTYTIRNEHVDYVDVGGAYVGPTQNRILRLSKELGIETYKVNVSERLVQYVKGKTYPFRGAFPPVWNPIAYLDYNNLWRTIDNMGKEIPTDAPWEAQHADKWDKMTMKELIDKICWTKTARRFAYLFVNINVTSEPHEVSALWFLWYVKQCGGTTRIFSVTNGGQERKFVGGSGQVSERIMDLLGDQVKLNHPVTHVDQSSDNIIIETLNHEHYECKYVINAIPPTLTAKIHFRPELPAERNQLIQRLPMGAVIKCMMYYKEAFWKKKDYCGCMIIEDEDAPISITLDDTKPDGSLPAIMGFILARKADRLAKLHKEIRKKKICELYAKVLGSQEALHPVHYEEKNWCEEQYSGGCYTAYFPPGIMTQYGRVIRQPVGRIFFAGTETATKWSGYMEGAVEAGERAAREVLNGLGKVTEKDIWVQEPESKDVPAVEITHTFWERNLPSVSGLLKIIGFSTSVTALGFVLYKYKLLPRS
Put plainly: biochemical. The settings on record: read-out: hMAO-A % inhibition at 10 μM ± SD; 10 μM inhibitor, human recombinant MAO-A, n = 3. As for the experimental part: as §1, §2

In a further data set the target is T3, human recombinant AChE (Homo sapiens, UniProt P22303).
T3 construct: purchased Aldrich (Milan, Italy)
Put plainly: biochemical. The settings on record: for inhibition at 10 µM: read-out: hAChE % inhibition at 10 μM ± SD, 10 μM inhibitor, human recombinant AChE, n = 3. On the procedure: as §1
The inhibition of human recombinant AChE was determined as already reported by applying Ellman’s spectrophotometric method.

The conditions of data set [1]: in silico and in vitro studies; cited from earlier work.
Another data set has as its system hAChE. Also noted: method as in PMID 10213168. The settings on record: read-out: hAChE IC50 in vitro; cited from earlier work.

T3 sequence (P22303 32-614): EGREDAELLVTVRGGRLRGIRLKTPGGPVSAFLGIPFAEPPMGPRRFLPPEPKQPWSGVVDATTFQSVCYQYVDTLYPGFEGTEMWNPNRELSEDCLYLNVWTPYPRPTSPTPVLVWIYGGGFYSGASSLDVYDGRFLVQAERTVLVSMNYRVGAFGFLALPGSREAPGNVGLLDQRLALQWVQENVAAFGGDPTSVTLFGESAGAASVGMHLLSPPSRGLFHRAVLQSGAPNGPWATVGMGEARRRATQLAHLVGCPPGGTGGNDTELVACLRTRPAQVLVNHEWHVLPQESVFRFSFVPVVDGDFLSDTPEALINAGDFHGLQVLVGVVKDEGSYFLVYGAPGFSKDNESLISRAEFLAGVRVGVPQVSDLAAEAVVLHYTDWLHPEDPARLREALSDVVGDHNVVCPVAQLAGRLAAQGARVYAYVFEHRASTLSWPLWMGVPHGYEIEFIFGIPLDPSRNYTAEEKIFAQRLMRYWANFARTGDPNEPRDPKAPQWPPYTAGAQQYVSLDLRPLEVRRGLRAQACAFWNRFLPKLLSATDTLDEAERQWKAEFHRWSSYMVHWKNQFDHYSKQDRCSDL

On to `COc1ccccc1N1CCN(CCCOc2c(C(C)=O)c(C)cc3oc(=O)cc(C)c23)CC1` [Compound 5, 6-acetyl-4,7-dimethyl-5-[3-(4-(2-methoxyphenyl)piperazin-1-yl)propoxy]coumarin], for which the inhibition at 10 µM was determined as 34 ± 2% on hMAO-B, 22 ± 3% at hMAO-A and 50 ± 6% at human recombinant AChE.
On the same counts, the results for `COc1ccccc1N1CCN(CCCCOc2cc(C)cc3oc(=O)cc(C)c23)CC1` [Compound 2, 4,7-dimethyl-5-[4-(4-(2-methoxyphenyl)piperazin-1-yl)butoxy]coumarin] are 33 ± 2%, 19 ± 1% and 61 ± 4%.
`COc1ccccc1N1CCN(CCCCOc2ccc3c(C)cc(=O)oc3c2C(C)=O)CC1` [Compound 10, 8-acetyl-7-{4-[4-(2-methoxyphenyl)piperazin-1-yl]butoxy}-4-methylchromen-2-one]: the inhibition at 10 µM at hMAO-B turned out to be 24 ± 1%; on hMAO-A it was 52 ± 4%. Further, the pharmacokinetic properties result in data set [1] is recorded as “excellent pharmacokinetic properties”. In addition, on human recombinant AChE, the 50% inhibitory concentration (IC50) is 1520 ± 660 nM.
For the compound `COc1ccccc1N1CCN(CCCCOc2c(C(C)=O)c(C)cc3oc(=O)cc(C)c23)CC1` [Compound 6, 6-acetyl-4,7-dimethyl-5-[4-(4-(2-methoxyphenyl)piperazin-1-yl)butoxy]coumarin], the inhibition at 10 µM at hMAO-B amounted to 43 ± 3%; at hMAO-A it was 30 ± 5%; on human recombinant AChE it was 48 ± 1%.
Turning to `COc1ccccc1N1CCN(CCCOc2ccc3c(C)cc(=O)oc3c2C(C)=O)CC1` [Compound 9, 8-acetyl-7-{3-[4-(2-methoxyphenyl)piperazin-1-yl]propoxy}-4-methylchromen-2-one], the IC50 on hMAO-B was 4760 ± 340 nM. Further, the values for the inhibition at 10 µM on hMAO-A and on human recombinant AChE were 32 ± 4% and 59 ± 7%, respectively.
For `COc1cccc(N2CCN(CCCCOc3c(C(C)=O)c(C)cc4oc(=O)cc(C)c34)CC2)c1` [Compound 8, 6-acetyl-4,7-dimethyl-5-[4-(4-(3-methoxyphenyl)piperazin-1-yl)butoxy]coumarin], the inhibition at 10 µM is 26 ± 2% at hMAO-B, 55 ± 2% on hMAO-A and 54 ± 8% on human recombinant AChE.
`COc1cc2oc(=O)c(C)c(C)c2cc1OCCCN1CCN(c2ccccc2OC)CC1` [Ensaculin]: in the data set with hAChE, the IC50 was 360 nM.
As to `COc1cccc(N2CCN(CCCOc3cc(C)cc4oc(=O)cc(C)c34)CC2)c1` [Compound 3, 4,7-dimethyl-5-[3-(4-(3-methoxyphenyl)piperazin-1-yl)propoxy]coumarin], at hMAO-B, the IC50 was found to be 1880 ± 450 nM. The figures for the inhibition at 10 µM at hMAO-A and on human recombinant AChE were 39 ± 5% and 53 ± 2%, respectively. In addition, the pharmacokinetic properties entry in data set [1] is “excellent pharmacokinetic properties”.
As to `COc1ccccc1N1CCN(CCCOc2cc(C)cc3oc(=O)cc(C)c23)CC1` [Compound 1, 4,7-dimethyl-5-{3-[4-(2-methoxyphenyl)piperazin-1-yl]propoxy}coumarin], on hMAO-B, the IC50 turned out to be 2180 ± 480 nM. Also, the inhibition at 10 µM on hMAO-A is 44 ± 4%; on human recombinant AChE, 61 ± 1%.
Take `COc1cccc(N2CCN(CCCOc3c(C(C)=O)c(C)cc4oc(=O)cc(C)c34)CC2)c1` [Compound 7, 6-acetyl-4,7-dimethyl-5-[3-(4-(3-methoxyphenyl)piperazin-1-yl)propoxy]coumarin]: the inhibition at 10 µM amounted to 35 ± 3% at hMAO-B, 39 ± 3% at hMAO-A and 46 ± 3% on human recombinant AChE.
With `COc1cccc(N2CCN(CCCCOc3cc(C)cc4oc(=O)cc(C)c34)CC2)c1` [Compound 4, 4,7-dimethyl-5-[4-(4-(3-methoxyphenyl)piperazin-1-yl)butoxy]coumarin], the IC50 at hMAO-B was found to be 3180 ± 630 nM. Also, the inhibition at 10 µM at hMAO-A was 38 ± 4%; at human recombinant AChE it was 56 ± 1%.

Broadly, the inhibition is the share of the control response that was lost under treatment. Usually IC50 stands for the midpoint of a concentration-inhibition curve.
